We go through seven molecules from article PMC6214026, “PSMA-Oriented Target Delivery of Novel Anticancer Prodrugs: Design, Synthesis, and Biological Evaluations of Oligopeptide-Camptothecin Conjugates” (International Journal of Molecular Sciences, 2018).

SMILES strings stand for the structures. Where two headings read alike, the source gives them in different places.

For experiment [1], the system named is HeLa cells (non-PSMA-expressing). Put plainly: MTT cytotoxicity assay, HeLa. The note with it: 72 h, mean ± SD, n = 3. It counts as cell-based, human. The method, then:
(§1) The cytotoxicities of PSMA-activated prodrug CPT-HT-J-ZLn and PSMA hydrolysate CPT-D-GLn were evaluated by MTT assays on PSMA-expressing (PSMA^+) cancer cell LNCaP-FGC, non-PSMA-expressing (PSMA^−) cancer cells HepG2, MCF-7, Hela, DU145, and PC-3, and normal cells MDCK, LO2, respectively, using CPT as a positive control.
The tested compounds were dissolved in DMSO (Sigma, St. Louis, MO, USA) and added at required concentrations to the cell culture.
(§2) The cytotoxicity of all the tested compounds was evaluated in vitro via the MTT method against PSMA-expressing LNCaP-FGC cells and non-PSMA-expressing cells HepG2, Hela, MCF-7, DU145, PC-3 cells using CPT as the positive control. Tumor cells growing in the logarithmic phase were seeded in 96-well plates at a density 3 × 10^3 cells/well and incubated overnight. The following day, cells were then treated with serial dilutions of the tested compounds for 72 h. At the end of this incubation, 20 µL of 5 mg/mL methylthiazol tetrazolium (MTT) was added to each well and incubation proceeded at 37 °C for another 4 h. After the supernatant medium was thrown away, 150 µL dimethylsulphoxide (DMSO) were added to each well and absorbance was measured at 490 nm using a plate reader (BIORAD 550 spectrophotometer, Bio-rad Life Science Development Ltd., Berkeley, CA, USA). Experiments were performed in triplicate and the values were the average of three (n = 3) independent experiments.
In general terms: Tetrazolium dyes change colour on reduction, which living cells bring about.

Experiment [2] relates to HepG2 cells (non-PSMA-expressing). As to the kind of experiment: cells. The note with it: read-out: IC50 HepG2. It counts as cell-based, human. The method, then:
as §1
(§3) The human prostate cancer cell line (LNCaP-FGC), human prostate cancer cell line (PC-3), human prostate cancer cell line (DU-145), human breast cancer cell line (MCF-7), human hepatocellular carcinoma cell line (HepG2), human cervical cancer cell line (Hela), were obtained from the Chinese Academy of Medical Sciences and Peking Union Medical College. The cultures of the cells were maintained as a monolayer in RPMI 1640 or DMEM supplemented with 10% (v/v) heat inactivated fetal bovine serum and 1% (v/v) enicillin/streptomycin (Corning, New York, NY, USA) and incubated at 37 °C in a humidified atmosphere with 5% CO2. The tested compounds were dissolved in DMSO (Sigma, St. Louis, MO, USA) and added at required concentrations to the cell culture.
as §2, with “experiments. The concentration of the compound that results in 50% growth inhibition corresponds to the IC50. Tumor cell growth inhibitory rate was calculated using Equation (1): % inhibition = (1 − Sample group OD/Control group OD) × 100%(1)” for “experiments.”

For experiment [3], the system named is DU145 cells (non-PSMA-expressing). Put plainly: cells. The note with it: read-out: IC50 DU145. It counts as cell-based, human. The procedure:
as §1, §3
as §2, with “experiments. The concentration of the compound that results in 50% growth inhibition corresponds to the IC50. Tumor cell growth inhibitory rate was calculated using Equation (1): % inhibition = (1 − Sample group OD/Control group OD) × 100%(1)” for “experiments.”

Experiment [4] relates to PC-3 cells (non-PSMA-expressing). As to the kind of experiment: cells. The note with it: read-out: IC50 PC-3. It counts as cell-based, human. The procedure:
as §1, §3
as §2, with “experiments. The concentration of the compound that results in 50% growth inhibition corresponds to the IC50. Tumor cell growth inhibitory rate was calculated using Equation (1): % inhibition = (1 − Sample group OD/Control group OD) × 100%(1)” for “experiments.”

In experiment [5] the test system is MCF-7 cells (non-PSMA-expressing). Put plainly: cells. It counts as cell-based, human. The note with it: read-out: IC50 MCF-7. The procedure:
as §1, §3
as §2, with “experiments. The concentration of the compound that results in 50% growth inhibition corresponds to the IC50. Tumor cell growth inhibitory rate was calculated using Equation (1): % inhibition = (1 − Sample group OD/Control group OD) × 100%(1)” for “experiments.”

A further experiment has as its system MDCK cells. Put plainly: cells. Conditions: 72 h, read-out: IC50 MDCK. It counts as cell-based. The procedure:
as §1
as §2, with “experiments. The concentration of the compound that results in 50% growth inhibition corresponds to the IC50. Tumor cell growth inhibitory rate was calculated using Equation (1): % inhibition = (1 − Sample group OD/Control group OD) × 100%(1)” for “experiments.”

The next experiment concerns LO2 cells. As to the kind of experiment: cells. It counts as cell-based. Conditions: read-out: IC50 LO2. The method, then:
as §1
as §2, with “experiments. The concentration of the compound that results in 50% growth inhibition corresponds to the IC50. Tumor cell growth inhibitory rate was calculated using Equation (1): % inhibition = (1 − Sample group OD/Control group OD) × 100%(1)” for “experiments.”

In experiment [6] the test system is LNCaP-FGC cells (PSMA-expressing). As to the kind of experiment: MTT cytotoxicity assay, LNCaP-FGC. It counts as cell-based, human. Conditions: 72 h, read-out: IC50 LNCaP-FGC. The procedure: as §1, §3
as §2, with “experiments. The concentration of the compound that results in 50% growth inhibition corresponds to the IC50. Tumor cell growth inhibitory rate was calculated using Equation (1): % inhibition = (1 − Sample group OD/Control group OD) × 100%(1)” for “experiments.”

One may read the IC50 as the concentration that inhibits the measured activity by half. `CC[C@@]1(OC(=O)CCCNC(=O)[C@@H](N)CCC(=O)O)C(=O)OCc2c1cc1n(c2=O)Cc2cc3ccccc3nc2-1` [CPT-D-GL4, (S)-4-amino-5-((4-(((S)-4-ethyl-3,14-dioxo-3,4,12,14-tetrahydro-1H-pyrano[3′,4′:6,7]indolizino[1,2-b]quinolin-4-yl)oxy)-4-oxobutyl)amino)-5-oxopentanoic acid]: the IC50 is greater than 40 µM in experiment [1] (Homo sapiens, HeLa); greater than 40 µM in experiment [2] (Homo sapiens, HepG2, 72 h); 4.89 ± 0.01 µM in experiment [3] (Homo sapiens, DU-145, 72 h); 14.9 ± 1 µM in experiment [4] (Homo sapiens, PC-3, 72 h); 4.03 ± 0.3 µM in experiment [5] (Homo sapiens, MCF7, 72 h); 0.23 ± 0.1 µM in the experiment with MDCK cells (Canis lupus familiaris, MDCK). Moreover, the IC50 with LO2 cells (Homo sapiens, L02, 72 h) was 0.4 ± 0.15 µM; in experiment [6] (Homo sapiens), 3.68 ± 0.5 µM.
In the case of `CC[C@@]1(OC(=O)CN)C(=O)OCc2c1cc1n(c2=O)Cc2cc3ccccc3nc2-1` [CPT-B-L2, (S)-4-ethyl-3,14-dioxo-3,4,12,14-tetrahydro-1H-pyrano[3′,4′:6,7]indolizino[1,2-b]quinolin-4-yl glycinate], the IC50 was 10 ± 2 µM in experiment [1] (Homo sapiens, HeLa); greater than 40 µM in experiment [2] (Homo sapiens, HepG2, 72 h); 0.12 ± 0.09 µM in experiment [3] (Homo sapiens, DU-145, 72 h); 5.19 ± 0.3 µM in experiment [4] (Homo sapiens, PC-3, 72 h); 4.11 ± 3.09 µM in experiment [5] (Homo sapiens, MCF7, 72 h); 5.16 ± 1.2 µM in the experiment with MDCK cells (Canis lupus familiaris, MDCK). Besides, the IC50 came to 5.61 ± 1.4 µM in the experiment with LO2 cells (Homo sapiens, L02, 72 h) and 0.38 ± 0.1 µM in experiment [6] (Homo sapiens).
For the molecule `CC[C@@]1(OC(=O)CNC(=O)[C@@H](N)CCC(=O)O)C(=O)OCc2c1cc1n(c2=O)Cc2cc3ccccc3nc2-1` [CPT-D-GL2, (S)-4-amino-5-((2-(((S)-4-ethyl-3,14-dioxo-3,4,12,14-tetrahydro-1H-pyrano[3′,4′:6,7]indolizino[1,2-b]quinolin-4-yl)oxy)-2-oxoethyl)amino)-5-oxopentanoic acid], the concentration for half-maximal inhibition (IC50) in experiment [1] (Homo sapiens, HeLa) is greater than 40 µM; in experiment [2] (Homo sapiens, HepG2, 72 h), greater than 40 µM; in experiment [3] (Homo sapiens, DU-145, 72 h) it was 0.4 ± 0.05 µM; in experiment [4] (Homo sapiens, PC-3, 72 h) it was 1.5 ± 0.2 µM; in experiment [5] (Homo sapiens, MCF7, 72 h), 0.3 ± 0.05 µM; with MDCK cells (Canis lupus familiaris, MDCK), 0.26 ± 0.14 µM. For the same molecule, the IC50 in the experiment with LO2 cells (Homo sapiens, L02, 72 h) turned out to be 0.16 ± 0.07 µM; in experiment [6] (Homo sapiens), 3.68 ± 0.36 µM.
With `CC[C@@]1(OC(=O)CCCCCNC(=O)[C@H](CCC(=O)N[C@@H](CCC(=O)N[C@@H](CCC(=O)N[C@@H](CC(=O)OC(C)(C)C)C(=O)N[C@@H](CCC(=O)OC(C)(C)C)C(=O)OC(C)(C)C)C(=O)OC(C)(C)C)C(=O)OC(C)(C)C)NC(=O)OC(C)(C)C)C(=O)OCc2c1cc1n(c2=O)Cc2cc3ccccc3nc2-1` [CPT-HT-J-L6, 1,11,16,3-tetra-tert-butyl 28-((S)-4-ethyl-3,14-dioxo-3,4,12,14-tetrahydro-1H-pyrano[3′,4′:6,7]indolizino[1,2-b]quinolin-4-yl) (3S,6S,11S,16S,21S)-6-(2-(tert-butoxy)-2-oxoethyl)-21-((tert-butoxycarbonyl)amino)-5,8,13,18,22-pentaoxo-4,7,12,17,23-pentaazaoctacosane-1,3,11,16,28-pentacarboxylate], the IC50 was greater than 40 µM in experiment [1]; greater than 40 µM in experiment [2] (MTT, 72 h, mean ± SD, n = 3); greater than 40 µM in experiment [3] (MTT, 72 h, mean ± SD, n = 3); greater than 40 µM in experiment [4] (MTT, 72 h, mean ± SD, n = 3); greater than 40 µM in experiment [5] (MTT, 72 h, mean ± SD, n = 3); greater than 40 µM in the experiment with MDCK cells (MTT, normal cells). The IC50 in the experiment on LO2 cells (MTT, 72 h, normal cells) is greater than 40 µM; in experiment [6] (MTT, mean ± SD, n = 3, PSMA+), greater than 40 µM.
As to `CC[C@@]1(OC(=O)CCCCCCCCCCCNC(=O)[C@H](CCC(=O)N[C@@H](CCC(=O)N[C@@H](CCC(=O)N[C@@H](CC(=O)OC(C)(C)C)C(=O)N[C@@H](CCC(=O)OC(C)(C)C)C(=O)OC(C)(C)C)C(=O)OC(C)(C)C)C(=O)OC(C)(C)C)NC(=O)OC(C)(C)C)C(=O)OCc2c1cc1n(c2=O)Cc2cc3ccccc3nc2-1` [CPT-HT-J-L12, 1,11,16,3-tetra-tert-butyl 34-((S)-4-ethyl-3,14-dioxo-3,4,12,14-tetrahydro-1H-pyrano[3′,4′:6,7]indolizino[1,2-b]quinolin-4-yl) (3S,6S,11S,16S,21S)-6-(2-(tert-butoxy)-2-oxoethyl)-21-((tert-butoxycarbonyl)amino)-5,8,13,18,22-pentaoxo-4,7,12,17,23-pentaazatetratriacontane-1,3,11,16,34-pentacarboxylate], the IC50 in experiment [1] is greater than 40 µM; in experiment [2] (MTT, 72 h, mean ± SD, n = 3), greater than 40 µM; in experiment [3] (MTT, 72 h, mean ± SD, n = 3) it was greater than 40 µM; in experiment [4] (MTT, 72 h, mean ± SD, n = 3), greater than 40 µM; in experiment [5] (MTT, 72 h, mean ± SD, n = 3), greater than 40 µM; in the experiment on MDCK cells (MTT, normal cells), greater than 40 µM. In addition, the IC50 was greater than 40 µM in the experiment with LO2 cells (MTT, 72 h, normal cells) and greater than 40 µM in experiment [6] (MTT, mean ± SD, n = 3, PSMA+).
Consider `CC[C@@]1(OC(=O)CCCN)C(=O)OCc2c1cc1n(c2=O)Cc2cc3ccccc3nc2-1` [CPT-B-L4, (S)-4-ethyl-3,14-dioxo-3,4,12,14-tetrahydro-1H-pyrano[3′,4′:6,7]indolizino[1,2-b]quinolin-4-yl 4-aminobutanoate], for which the IC50 in experiment [1] (Homo sapiens, HeLa) is 4.37 ± 0.5 µM; in experiment [2] (Homo sapiens, HepG2, 72 h), greater than 40 µM; in experiment [3] (Homo sapiens, DU-145, 72 h), 0.25 ± 0.13 µM; in experiment [4] (Homo sapiens, PC-3, 72 h), 1 ± 0.1 µM; in experiment [5] (Homo sapiens, MCF7, 72 h), 1.58 ± 2.42 µM; with MDCK cells (Canis lupus familiaris, MDCK), 3.2 ± 2 µM. The IC50 with LO2 cells (Homo sapiens, L02, 72 h) stood at 1.36 ± 0.3 µM; in experiment [6] (Homo sapiens), 0.37 ± 0.02 µM.
Consider `CC[C@@]1(OC(=O)CNC(=O)[C@@H](N)CCC(=O)N[C@@H](CCC(=O)N[C@@H](CCC(=O)N[C@@H](CC(=O)O)C(=O)N[C@@H](CCC(=O)O)C(=O)O)C(=O)O)C(=O)O)C(=O)OCc2c1cc1n(c2=O)Cc2cc3ccccc3nc2-1` [CPT-HT-J-ZL2, ((S)-4-((S)-4-((S)-4-amino-5-((2-(((S)-4-ethyl-3,14-dioxo-3,4,12,14-tetrahydro-1H-pyrano[3′,4′:6,7]indolizino[1,2-b]quinolin-4-yl)oxy)-2-oxoethyl)amino)-5-oxopentanamido)-4-carboxybutanamido)-4-carboxybutanoyl)-L-aspartyl-L-glutamic acid], for which the IC50 in experiment [1] was 3.54 ± 2.54 µM; in experiment [2] (MTT, 72 h, mean ± SD, n = 3), greater than 40 µM; in experiment [3] (MTT, 72 h, mean ± SD, n = 3), 1.16 ± 0.28 µM; in experiment [4] (MTT, 72 h, mean ± SD, n = 3), 1 ± 0.1 µM; in experiment [5] (MTT, 72 h, mean ± SD, n = 3), 0.11 ± 0.08 µM; in the experiment with MDCK cells (MTT, normal cells), 1.27 ± 0.3 µM. Moreover, the IC50 is 1.68 ± 0.45 µM in the experiment with LO2 cells (MTT, 72 h, normal cells) and 2.04 ± 0.3 µM in experiment [6] (MTT, mean ± SD, n = 3, PSMA+).
